Source: the supplement of paper PMC8988213
Counter-ions that a name gives are not always drawn.

Assays:
[1] = system: ID211 patient-derived PDAC 2D line (post-FOLFIRINOX); assay: normalised area under dose-response curve (viability relative to DMSO, 7 doses up to 10 µM) (fraction (AUC)); higher = less sensitive (more viability retained); conditions: 72 h; top dose: 10 µM
Experimental: (§1)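 Patient-derived 2D PDAC cells (ID188 pre-FOLFIRINOX, passage 5+27; ID211 post-FOLFIRINOX, passage 9+11), 1,500-3,000 cells/well in 96-well plates, were treated with a 415-compound Selleck library in seven concentrations (3-fold dilution series, top 10 µM) for 72 h. Viability was read by CellTiter-Glo ATP luminescence, normalised to the DMSO control, and the area under the dose-response curve was computed with the GRmetrics R package; a lower AUC means higher sensitivity.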

[2] = system: ID188 patient-derived PDAC 2D line (pre-FOLFIRINOX); assay: as above; conditions: 72 h; top dose: 10 µM
Experimental: as §1

| Structure (SMILES) | normalised area under dose-response curve [1] | normalised area under dose-response curve [2] |
| --- | --- | --- |
| Cc1c(CN2CCN(C(=O)[C@H](C)O)CC2)sc2c(N3CCOCC3)nc(-c3cnc(N)nc3)nc12 [Apitolisib (GDC-0980, RG7422)] | 0.54 | 0.606 |
| CC(C)n1nc(-c2ccc3oc(N)nc3c2)c2c(N)ncnc21 [Sapanisertib (INK 128, MLN0128)] | 0.389 | 0.541 |
| Cc1cc(Nc2cc(N3CCN(C)CC3)nc(Sc3ccc(NC(=O)C4CC4)cc3)n2)n[nH]1 [Tozasertib (VX-680, MK-0457)] | 0.716 | 0.235 |
| C[C@]1(O)C[C@@H](c2nc(-c3ccc4ccc(-c5ccccc5)nc4c3)c3c(N)nccn32)C1 [Linsitinib (OSI-906)] | 0.593 | 0.84 |
| CCNC(=O)C[C@@H]1N=C(c2ccc(Cl)cc2)c2cc(OC)ccc2-n2c(C)nnc21 [I-BET-762] | 0.777 | 0.888 |
| COCCOc1nc(-c2ccc(Cl)c(Cl)c2)n(-c2ccc(NC(=O)CCl)cc2)n1 [MI-2 (MALT1 inhibitor)] | 0.573 | 0.897 |
| Cc1cc(-c2nc(-c3ccc(OC(F)(F)F)cc3)no2)nn1Cc1ccnc(N2CCN(C3CC3)CC2)c1 [BAY 87-2243] | 0.794 | 0.574 |
| O=C(O)C(=O)O.[NH-][C@@H]1CCCC[C@H]1[NH-].[Pt+2] [Oxaliplatin] | 0.844 | 0.901 |
| Cn1cnc2c(F)c(Nc3ccc(Br)cc3F)c(C(=O)NOCCO)cc21 | 0.457 | 0.732 |
| CN(CCNc1ccnc2cc(Cl)ccc12)CCNc1ccnc2cc(Cl)ccc12 [Lys05] | 0.796 | 0.921 |
| CCOc1cc2ncc(C#N)c(Nc3ccc(F)c(Cl)c3)c2cc1NC(=O)/C=C/CN(C)C [Pelitinib (EKB-569)] | 0.631 | 0.846 |
| COc1ccc(-n2c(SCCCN3C(=O)c4cccc5cccc(c45)C3=O)nnc2-c2ccncc2)cc1 [WIKI4] | 0.85 | 0.837 |
| CC(C)N(CCCNC(=O)Nc1ccc(C(C)(C)C)cc1)C[C@H]1O[C@@H](n2cc(Br)c3c(N)ncnc32)[C@H](O)[C@@H]1O [SGC 0946] | 0.809 | 0.94 |
| COc1cc2c(cc1OCCCN1CCCC1)N=C(N)C21CCC1 [A-366] | 0.895 | 0.983 |
| CC(C)(C#N)c1cc(Cn2cncn2)cc(C(C)(C)C#N)c1 [Anastrozole] | 0.799 | 0.939 |
| Cc1ccc(-c2cc(C(F)(F)F)nn2-c2ccc(S(N)(=O)=O)cc2)cc1 [Celecoxib] | 0.892 | 0.935 |
| Cc1cccc(-c2nn3c(c2-c2ccnc4ccc(C(N)=O)cc24)CCC3)n1 | 0.965 | 0.968 |
| CCC(C)SSc1ncc[nH]1 (stereo unspecified) [PX-12] | 0.903 | 0.985 |
| CC(C)(C)c1cc(NC(=O)Nc2ccc(-c3cn4c(n3)sc3cc(OCCN5CCOCC5)ccc34)cc2)no1 [Quizartinib (AC220)] | 0.809 | 0.974 |
| O=C(O)CCN1C(=O)/C(=C/c2ccc(-c3ccc([N+](=O)[O-])cc3)o2)SC1=S [KYA1797K] | 0.835 | 0.976 |
| CC(=O)c1cc2c(o1)C(=O)c1ccccc1C2=O [Napabucasin] | 0.708 | 0.65 |
| CN(C)CCCNC(=O)c1ccc(-c2cc(O)c3ncccc3c2)cc1 [ML324] | 0.774 | 0.953 |
| C[C@H](NC(=O)Cc1cc(F)cc(F)c1)C(=O)N[C@@H]1C(=O)N(C)c2ccccc2-c2ccccc21 | 0.782 | 0.89 |
| CN(C)Cc1c(C(=O)NCCOc2ccc(C(=O)NO)cc2)oc2ccccc12 | 0.748 | 0.733 |
| N#CC[C@H](C1CCCC1)n1cc(-c2ncnc3[nH]ccc23)cn1 | 0.892 | 0.945 |
| CNC(=O)c1cccc(-c2ccc3c(N4CCOC[C@@H]4C)nc(N4CCOC[C@@H]4C)nc3n2)c1 [Vistusertib (AZD2014)] | 0.765 | 0.723 |
| O=C(O)c1cc(I)ccc1NC(=O)[C@H](Cc1ccccc1)NCc1ccccc1 [CW069] | 0.842 | 0.937 |

| Structure (SMILES) | normalised area under dose-response curve [1] | normalised area under dose-response curve [2] |
| --- | --- | --- |
| C[C@@H](Oc1cc(-n2cnc3ccc(CN4CCN(C)CC4)cc32)sc1C(N)=O)c1ccccc1C(F)(F)F | 0.726 | 0.687 |
| CS(=O)(=O)OCCCCOS(C)(=O)=O [Busulfan] | 0.814 | 0.948 |
| NC[C@@](O)(c1ccc(Cl)cc1)c1ccc(-c2cn[nH]c2)cc1 | 0.981 | 1.03 |
| C[C@@H](C(=O)Nc1ccc(Cl)cc1)C1CCC(c2ccnc3ccc(F)cc23)CC1 (stereo partly specified) | 0.863 | 0.882 |
| COc1ccc(N(C(=O)Oc2c(C)cccc2C)c2ccnc(Nc3ccc(N4CCN(C)CC4)cc3)n2)c(OC)c1 [WH-4-023] | 0.935 | 0.929 |
| Clc1ccc(Nc2nnc(Cc3ccncc3)c3ccccc23)cc1 [Vatalanib (PTK787) 2HCl] | 0.894 | 0.926 |
| O=C(c1ccc(F)c(F)c1Nc1ccc(I)cc1F)N1CC(O)([C@@H]2CCCCN2)C1 [Cobimetinib (GDC-0973, RG7420)] | 0.26 | 0.639 |
| O=C(Oc1cc(S(=O)(=O)c2ccccc2)ccc1[N+](=O)[O-])c1ccc(Cl)cc1 | 0.869 | 0.959 |
| Cc1nc(Nc2cnn(C3CCNCC3)c2)nc2c1N(C)C(=O)c1cc3ccccc3cc1N2C [HTH-01-015] | 0.823 | 1.2 |
| CCOc1ccc(Cc2cc([C@@H]3O[C@H](CO)[C@@H](O)[C@H](O)[C@H]3O)ccc2Cl)cc1 [Dapagliflozin] | 0.913 | 0.943 |
| C[C@@H](Oc1cc(-c2cnn(C3CCNCC3)c2)cnc1N)c1c(Cl)ccc(F)c1Cl | 0.799 | 0.772 |
| O=C(O)c1ccc(N2C(=O)/C(=C\c3ccc(-c4ccc([N+](=O)[O-])cc4)o3)C=C2c2ccccc2)cc1 [4E1RCat] | 0.895 | 0.946 |
| O=C(Nc1cc(Cl)cc2c1[nH]c1cnccc12)c1cccnc1 [PS-1145] | 0.839 | 0.923 |
| CC(C)C[C@H](NC(=O)CNC(=O)c1cc(Cl)ccc1Cl)B1OC(=O)C(CC(=O)O)(CC(=O)O)O1 [Ixazomib Citrate (MLN9708)] | 0.48 | 0.425 |
| C/C(=N\NC(=O)c1cccc(S(=O)(=O)N2CCOCC2)c1)c1cc(Cl)ccc1O [SP2509] | 0.824 | 0.86 |
| COc1ccc(N2C(=O)/C(=C\c3ccc([N+](=O)[O-])s3)SC2=S)cc1 [CCF642] | 0.874 | 0.746 |
| CN1CCN(c2nc(C3=C(c4c[nH]c5ccccc45)C(=O)NC3=O)c3ccccc3n2)CC1 [Sotrastaurin] | 0.941 | 0.978 |
| CCn1cc(-c2cccc(C(F)(F)F)c2)c2sc(C(=N)NC3CCS(=O)(=O)CC3)cc2c1=O [I-BRD9] | 0.833 | 1.01 |
| Cc1cn(CCN2CCN(c3ccccc3-c3cc(C#N)cc(C(=O)NCCCN4CCCC4)c3)CC2)c2ccccc12 [LLY-507] | 0.842 | 0.859 |
| O=C1Nc2ccccc2/C1=C1/Nc2ccccc2C1=O [Indirubin] | 0.801 | 0.791 |
| CNCCN(C)Cc1c[nH]nc1-c1ccc(O[C@H]2C[C@H](OCCC3CCOCC3)C2)cc1 | 0.92 | 0.779 |
| CNc1cc(-c2cccc(Cl)c2Cl)nc(N)n1 [TH287] | 0.901 | 0.896 |
| Nc1nc2c(cnn2CCc2ccccc2)c2nc(-c3ccco3)nn12 | 0.905 | 0.94 |
| Cc1ccc(NC(=O)c2cccc(C(C)(C)C#N)c2)cc1Nc1ccc2ncn(C)c(=O)c2c1 [AZ 628] | 0.634 | 0.898 |
| COC(=O)c1ccc2c(c1)nc(NC(=O)c1ccccc1)n2CCCc1ccccc1 [BRD4770] | 0.836 | 0.887 |
| C=CCNc1ncnc2ccc(Br)cc12 [SMER28] | 0.825 | 0.997 |
